pIC50: −log10 of the molar value.
What follows are compounds tested against 3-beta-hydroxysteroid-Delta(8),Delta(7)-isomerase (Homo sapiens, UniProt Q15125) (assay: Inhibition of EBP derived from HEK293T cells using zymosterol-d5 as substrate preincubated for 30 mins followed by substrate addition measured after 4 hrs by LC-APCI MRM MS analysis).
Format: cell-based

3-beta-hydroxysteroid-Delta(8),Delta(7)-isomerase, sequence (Q15125 whole entry): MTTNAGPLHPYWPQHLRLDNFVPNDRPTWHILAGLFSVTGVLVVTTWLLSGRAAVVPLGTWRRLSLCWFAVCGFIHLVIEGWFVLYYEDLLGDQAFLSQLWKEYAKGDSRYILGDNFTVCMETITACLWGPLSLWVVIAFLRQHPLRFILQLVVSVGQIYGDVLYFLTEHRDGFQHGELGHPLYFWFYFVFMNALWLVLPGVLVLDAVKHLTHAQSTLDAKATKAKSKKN

pIC50, > 7.00:
O=S(=O)(c1ccc2c(c1)OCCO2)N1CCC2(CCC(N3CC4(COC4)C3)C2)CC1 (stereo unspecified), COc1nccc(S(=O)(=O)N2CCC3(CCC(N4CCOCC4)C3)CC2)c1F (stereo unspecified), O=S(=O)(c1coc(C(F)(F)F)c1)N1CCC2(CCC(N3CC4(COC4)C3)C2)CC1 (stereo unspecified), O=S(=O)(c1ccc(F)cc1)N1CCC2(CCC(N3CC4(COC4)C3)C2)CC1 (stereo unspecified), Cc1nc(C(F)(F)F)ncc1S(=O)(=O)N1CCC2(CC1)CC(N(C)C1CC3(COC3)C1)CO2 (stereo unspecified), Cn1nc(C2CC2)cc1S(=O)(=O)N1CCC2(CC1)CC(NC1CCOCC1)C2

From ChEMBL document CHEMBL5370677, “Emopamil-Binding Protein Inhibitors for Treating Multiple Sclerosis” (ACS Med Chem Lett, 2023)
